Here are results for three compounds from patent publication US5191079A, “Quinolinecarboxylic acid derivatives” (priority 1990, dated 1993).

Molecules are shown by their SMILES. Values after ≈ are worked out from the molar mass of the structure shown.

One may read the MIC as the lowest concentration found to suppress growth.

What all share (assay): MIC, Experiment 1
Type in all cases: cell-based

The test system of assay [1] is Klebsiella pneumoniae PCI-602. The note with it: PCI602, K. pneumoniae PCI-602, Gram -, read-out: Min. inhib. concentr. (MIC). Here is the method:
(§1) The compounds of the present invention (B, E, G, H, M, N, O, P and Q) were each dissolved in dimethylsulfoxide to prepare a solution of 5000 μg/ml in concentration. The compounds of the present invention (I, J and K) and the known compound (Y) were each dissolved in sterilized distilled water to prepare a solution of 5000 μg/ml in concentration. Each solution was diluted with sterilized distilled water to prepare a standard solution with a concentration of each test compound: 1000 μg/ml. The test was carried out by a method as appointed by Japan Society of Chemotherapy [cf. Chemotherapy, 29, 76-79 (1981), TOKYO].
(§2) As to Streptococcus pneumoniae and Streptococcus pyogenes, Brain heart infusion broth (manufactured by DIFCO) was used as the medium for the preculture thereof, and a heart infusion agar medium containing 5% defibrinated horse blood (manufactured by Nissui Seiyaku K. K., Japan) was used as the medium for the measurement of minimum inhibitory concentration (MIC). As to other microorganisms, a sensitivity test broth (manufactured by Nissui Seiyaku K. K.) was used as the medium for the preculture thereof, and a sensitivity test agar medium (manufactured by Nissui Seiyaku K. K.) was used as the medium for the measurement of MIC.

The next assay concerns Enterobacter cloacae 963. The note with it: E. cloacae 963, Gram -, read-out: Min. inhib. concentr. (MIC). Here is the method: as §1, §2
Assay [2] deals with Staphylococcus aureus ATCC 9144. Particulars: ATCC9144, S. aureus ATCC 9144, Gram +, read-out: Min. inhib. concentr. (MIC). Here is the method: as §1, §2
For assay [3], the system named is Streptococcus pyogenes Sv. Particulars: S. pyogenes Sv, Gram +, agar with 5% defibrinated horse blood, read-out: Min. inhib. concentr. (MIC). Here is the method:
as §1, §2

Assay [4] relates to Staphylococcus aureus Terajima (IID 670). The note with it: IID670, S. aureus Terajima (IID 670), Gram +, read-out: Min. inhib. concentr. (MIC). Here is the method:
as §1, §2

The test system of assay [5] is Micrococcus luteus ATCC 9341. Particulars: ATCC9341, M. luteus ATCC 9341, Gram +, read-out: Min. inhib. concentr. (MIC). Here is the method: as §1, §2
Assay [6] concerns Streptococcus pneumoniae IID 554. The note with it: IID554, S. pneumoniae IID 554, Gram +, agar with 5% defibrinated horse blood, read-out: Min. inhib. concentr. (MIC). How it is done: as §1, §2
Assay [7] has as its system Staphylococcus aureus IID 803. The note with it: IID803, S. aureus IID 803, Gram +, read-out: Min. inhib. concentr. (MIC). Here is the method:
as §1, §2

The test system of assay [8] is Pseudomonas aeruginosa NCTC 10490. The note with it: NCTC10490, P. aeruginosa NCTC 10490, Gram -, read-out: Min. inhib. concentr. (MIC). Here is the method: as §1, §2
Assay [9] concerns Streptococcus pyogenes Cook. The note with it: S. pyogenes Cook, Gram +, agar with 5% defibrinated horse blood, read-out: Min. inhib. concentr. (MIC). Here is the method:
as §1, §2

The subject of assay [10] is Streptococcus pyogenes Su. Particulars: S. pyogenes Su, Gram +, agar with 5% defibrinated horse blood, read-out: Min. inhib. concentr. (MIC). How it is done:
as §1, §2

Assay [11] relates to Staphylococcus aureus FDA 209P JC-1. Particulars: FDA209P, S. aureus FDA 209P JC-1, Gram +, read-out: Min. inhib. concentr. (MIC). Here is the method: as §1, §2
For assay [12], the system named is Staphylococcus aureus MS-353. The note with it: MS353, S. aureus MS-353, Gram +, read-out: Min. inhib. concentr. (MIC). Here is the method: as §1, §2
Assay [13] deals with Proteus mirabilis IFO 3849. Particulars: IFO3849, P. mirabilis IFO 3849, Gram -, read-out: Min. inhib. concentr. (MIC). Here is the method:
as §1, §2

For assay [14], the system named is Bacillus subtilis ATCC 6633. The note with it: ATCC6633, B. subtilis ATCC 6633, Gram +, read-out: Min. inhib. concentr. (MIC). How it is done: as §1, §2
Assay [15] deals with Staphylococcus aureus Cowan I (IID 975). The note with it: IID975, S. aureus Cowan I (IID 975), Gram +, read-out: Min. inhib. concentr. (MIC). How it is done: as §1, §2
For assay [16], the system named is Escherichia coli NIHJ JC-2. Particulars: NIHJJC2, E. coli NIHJ JC-2, Gram -, read-out: Min. inhib. concentr. (MIC). Here is the method: as §1, §2
The subject of assay [17] is Staphylococcus aureus FDA 243. The note with it: FDA243, S. aureus FDA 243, Gram +, read-out: Min. inhib. concentr. (MIC). Here is the method:
as §1, §2

For assay [18], the system named is Streptococcus pneumoniae IID 552. The note with it: IID552, S. pneumoniae IID 552, Gram +, agar with 5% defibrinated horse blood, read-out: Min. inhib. concentr. (MIC). Here is the method:
as §1, §2

Assay [19] concerns Acinetobacter calcoaceticus Ac 54. The note with it: AC54, A. calcoaceticus Ac 54, Gram -, read-out: Min. inhib. concentr. (MIC). How it is done:
as §1, §2

Another assay deals with Bacillus cereus IAM 1029. Particulars: IAM1029, B. cereus IAM 1029, Gram +, read-out: Min. inhib. concentr. (MIC). How it is done: as §1, §2

In the case of `CN1Cc2csc3c(C(=O)O)c(=O)c4cc(F)c(N5CCOC(CO)C5)c1c4n23` (stereo not drawn) [Compound (B), 9,1-(Methylimino)methano-7-fluoro-8-(2-hydroxymethylmorpholino)-5-oxo-5H-thiazolo[3,2-a]quinoline-4-carboxylic acid], the MIC in assay [1] is at most 0.006 µg/mL; in the assay with Enterobacter cloacae 963 it was 0.2 µg/mL (≈ 0.477 µM); in assay [2], at most 0.006 µg/mL; in [3], 0.05 µg/mL (≈ 0.119 µM); in [4] it was 0.025 µg/mL (≈ 0.0596 µM); in [5] it was 0.1 µg/mL (≈ 0.238 µM). For the same compound, the MIC in assay [6] was 0.05 µg/mL (≈ 0.119 µM); in [7] it was 0.013 µg/mL (≈ 0.031 µM); in [8], 0.39 µg/mL (≈ 0.93 µM); in [9], 0.025 µg/mL (≈ 0.0596 µM); in assay [10], 0.025 µg/mL (≈ 0.0596 µM); in [11] it was 0.013 µg/mL (≈ 0.031 µM). Moreover, the MIC in assay [12] was 0.025 µg/mL (≈ 0.0596 µM); in assay [13] it was 0.39 µg/mL (≈ 0.93 µM); in assay [14] it was at most 0.006 µg/mL; in assay [15], 0.013 µg/mL (≈ 0.031 µM); in assay [16], 0.1 µg/mL (≈ 0.238 µM); in [17], at most 0.006 µg/mL. Also, the MIC in [18] was 0.025 µg/mL (≈ 0.0596 µM); in [19] it was at most 0.006 µg/mL; in the assay on Bacillus cereus IAM 1029 it was 0.025 µg/mL (≈ 0.0596 µM).

Turning to `COCC1CN(c2c(F)cc3c(=O)c(C(=O)O)c4scc5n4c3c2N(C)C5)CCO1` (stereo not drawn) [Compound (E), 9,1-(Methylimino)methano-7-fluoro-8-(2-methoxymethylmorpholino)-5-oxo-5H-thiazolo[3,2-a]quinoline-4-carboxylic acid], the MIC in [1] came to 0.025 µg/mL (≈ 0.0577 µM); with Enterobacter cloacae 963, 0.78 µg/mL (≈ 1.8 µM); in assay [2] it was 0.013 µg/mL (≈ 0.03 µM); in [3], 0.05 µg/mL (≈ 0.115 µM); in assay [4], 0.025 µg/mL (≈ 0.0577 µM); in assay [5], 0.1 µg/mL (≈ 0.231 µM). The MIC in assay [6] was 0.05 µg/mL (≈ 0.115 µM); in assay [7] it was 0.013 µg/mL (≈ 0.03 µM); in [8] it was 1.56 µg/mL (≈ 3.6 µM); in [9], 0.05 µg/mL (≈ 0.115 µM); in assay [10], 0.05 µg/mL (≈ 0.115 µM); in assay [11], 0.025 µg/mL (≈ 0.0577 µM). Further, the MIC in assay [12] is 0.013 µg/mL (≈ 0.03 µM); in assay [13], 0.78 µg/mL (≈ 1.8 µM); in [14], at most 0.006 µg/mL; in assay [15], at most 0.006 µg/mL; in [16] it was 0.2 µg/mL (≈ 0.461 µM); in [17] it was at most 0.006 µg/mL. Besides, the MIC was 0.05 µg/mL (≈ 0.115 µM) in assay [18], 0.013 µg/mL (≈ 0.03 µM) in assay [19] and 0.025 µg/mL (≈ 0.0577 µM) in the assay with Bacillus cereus IAM 1029.

For the compound `CN1Cc2csc3c(C(=O)O)c(=O)c4cc(F)c(N5CCN6CCOC[C@H]6C5)c1c4n23` [Compound (F), 9,1-(Methylimino)methano-7-fluoro-8-[(6R)-1,8-diaza-4-oxabicyclo[4.4.0]deca-8-yl]-5-oxo-5H-thiazolo[3,2-a]quinoline-4-carboxylic acid], the MIC turned out to be 0.013 µg/mL (≈ 0.0292 µM) in [1]; 0.78 µg/mL (≈ 1.75 µM) in the assay on Enterobacter cloacae 963; 0.025 µg/mL (≈ 0.0562 µM) in assay [2]; 0.05 µg/mL (≈ 0.112 µM) in assay [3]; 0.05 µg/mL (≈ 0.112 µM) in assay [4]; 0.2 µg/mL (≈ 0.45 µM) in assay [5]. Also, the MIC was found to be 0.05 µg/mL (≈ 0.112 µM) in assay [6]; 0.013 µg/mL (≈ 0.0292 µM) in [7]; 0.78 µg/mL (≈ 1.75 µM) in assay [8]; 0.05 µg/mL (≈ 0.112 µM) in [9]; 0.05 µg/mL (≈ 0.112 µM) in assay [10]; 0.025 µg/mL (≈ 0.0562 µM) in [11]. Also, the MIC in assay [12] was found to be 0.025 µg/mL (≈ 0.0562 µM); in assay [13], 0.78 µg/mL (≈ 1.75 µM); in [14], 0.013 µg/mL (≈ 0.0292 µM); in assay [15] it was 0.025 µg/mL (≈ 0.0562 µM); in [16], 0.39 µg/mL (≈ 0.877 µM); in [17], 0.013 µg/mL (≈ 0.0292 µM). For the same compound, the MIC in assay [18] was 0.05 µg/mL (≈ 0.112 µM); in assay [19], 0.013 µg/mL (≈ 0.0292 µM); in the assay with Bacillus cereus IAM 1029, 0.025 µg/mL (≈ 0.0562 µM).
